From patent US20220324835A1 (Nurix Therapeutics, Inc., priority 2018, published 2022)

How the values were obtained:
[1] = target: T1, Cbl-b (Homo sapiens, UniProt Q13191); assay: Cbl-b inhibition assay (Cbl-b activity assay, FRET, Biological Example 1; 100 mM NaCl, 60 nM Src kinase); type: biochemical; settings: upper bound stated in text lists; read-out: IC50 values in the Cbl-b inhibition assay of Biological Example 1
In short: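 Steps: Src kinase phosphorylates N-terminal biotinylated Avi-tagged Cbl-b; phosphorylated Cbl-b binds Bodipy-fluorescein ubiquitin-loaded UbcH5B; streptavidin-terbium on Cbl-b sits close to the fluorescein label, producing FRET. Inhibitors block UbcH5B-Ub binding.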

[2] = target: T1, Cbl-b; assay: Cbl-b activity assay (Cbl-b inhibition assay), TR-FRET of Cbl-b interaction with UbcH5B-Ub; type: biochemical; settings: assay buffer with 100 mM NaCl, 60 nM Src kinase; read-out: Cbl-b activity IC50
In short: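 Compound-treated Cbl-b was incubated 1.5 h with Src kinase (60 nM final; 30 nM for asterisked values, which also used 50 mM instead of 100 mM NaCl), 1 mM ATP and 5 mM MgCl2. Binding to fluorescent Ub-loaded UbcH5B (C85K mutant) was then read by TR-FRET after 1 h more.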

T1 sequence (Q13191 36-427): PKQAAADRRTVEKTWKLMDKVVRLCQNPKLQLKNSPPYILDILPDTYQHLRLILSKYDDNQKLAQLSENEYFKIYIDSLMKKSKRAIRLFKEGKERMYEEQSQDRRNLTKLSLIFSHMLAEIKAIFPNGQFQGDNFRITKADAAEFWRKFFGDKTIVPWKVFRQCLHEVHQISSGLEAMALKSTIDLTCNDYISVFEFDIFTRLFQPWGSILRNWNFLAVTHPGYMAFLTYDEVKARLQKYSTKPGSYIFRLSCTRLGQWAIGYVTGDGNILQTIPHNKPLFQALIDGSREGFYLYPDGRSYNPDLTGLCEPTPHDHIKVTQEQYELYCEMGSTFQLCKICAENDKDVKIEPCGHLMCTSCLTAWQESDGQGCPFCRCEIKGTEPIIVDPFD

| Structure (SMILES) | IC50 [1] | IC50 [2] |
| --- | --- | --- |
| Cn1cnnc1CC1(c2cccc(N3Cc4c(cc(CN5CCc6cnccc6C5)cc4C(F)(F)F)C3=O)c2)COC1 [Example 648, 6-((3,4-dihydro-2,6-naphthyridin-2(1H)-yl)methyl)-2-(3-(3-((4-methyl-4H-1,2,4-triazol-3-yl)methyl)oxetan-3-yl)phenyl)-4-(trifluoromethyl)isoindolin-1-one] | ≤ 100 nM | < 100 nM |
| Cn1cnnc1CC1(c2cccc(N3Cc4c(cc(CN5Cc6cccc(Cl)c6C5)cc4C(F)(F)F)C3=O)c2)COC1 [Example 657, 6-((4-chloroisoindolin-2-yl)methyl)-2-(3-(3-((4-methyl-4H-1,2,4-triazol-3-yl)methyl)oxetan-3-yl)phenyl)-4-(trifluoromethyl)isoindolin-1-one] | ≤ 100 nM | < 100 nM |
| Cn1cnnc1CC1(c2cccc(N3Cc4c(cc(CN5Cc6cccc(C#N)c6C5)cc4C(F)(F)F)C3=O)c2)COC1 [Example 658, 2-((2-(3-(3-((4-methyl-4H-1,2,4-triazol-3-yl)methyl)oxetan-3-yl)phenyl)-3-oxo-7-(trifluoromethyl)isoindolin-5-yl)methyl)isoindoline-4-carbonitrile] | ≤ 100 nM | < 100 nM |
| Cn1cnnc1CC1(c2cccc(N3Cc4c(cc(CN5Cc6ccc(Cl)cc6C5)cc4C(F)(F)F)C3=O)c2)COC1 [Example 659, 6-((5-chloroisoindolin-2-yl)methyl)-2-(3-(3-((4-methyl-4H-1,2,4-triazol-3-yl)methyl)oxetan-3-yl)phenyl)-4-(trifluoromethyl)isoindolin-1-one] | ≤ 100 nM | < 100 nM |
| COc1ccc2c(c1)CN(Cc1cc3c(c(C(F)(F)F)c1)CN(c1cccc(C4(Cc5nncn5C)COC4)c1)C3=O)CC2 [Example 661, 6-((7-methoxy-3,4-dihydroisoquinolin-2(1H)-yl)methyl)-2-(3-(3-((4-methyl-4H-1,2,4-triazol-3-yl)methyl)oxetan-3-yl)phenyl)-4-(trifluoromethyl)isoindolin-1-one] | ≤ 100 nM | < 100 nM |
| Cn1cnnc1CC1(c2cccc(N3Cc4c(cc(CN5CC[C@@H](c6ccccc6)C5)cc4C(F)(F)F)C3=O)c2)COC1 [Example 662b, (S)-2-(3-(3-((4-methyl-4H-1,2,4-triazol-3-yl)methyl)oxetan-3-yl)phenyl)-6-((3-phenylpyrrolidin-1-yl)methyl)-4-(trifluoromethyl)isoindolin-1-one] | ≤ 100 nM | < 100 nM |
| C[C@@H]1CN(Cc2cc3c(c(C(F)(F)F)c2)CN(c2cccc(C4(Cc5nncn5C)COC4)c2)C3=O)C[C@H](C)O1 [Example 664, 6-(((cis)-2,6-dimethylmorpholino)methyl)-2-(3-(3-((4-methyl-4H-1,2,4-triazol-3-yl)methyl)oxetan-3-yl)phenyl)-4-(trifluoromethyl)isoindolin-1-one] | ≤ 100 nM | < 100 nM |
| Cn1cnnc1CC1(c2cccc(N3Cc4c(cc(CN5CCOC(C)(C)C5)cc4C(F)(F)F)C3=O)c2)COC1 [Example 665, 6-((2,2-dimethylmorpholino)methyl)-2-(3-(3-((4-methyl-4H-1,2,4-triazol-3-yl)methyl)oxetan-3-yl)phenyl)-4-(trifluoromethyl)isoindolin-1-one] | ≤ 100 nM | < 100 nM |
| Cn1cnnc1CC1(c2cccc(N3Cc4c(cc(CN5CCOC6(CC6)C5)cc4C(F)(F)F)C3=O)c2)COC1 [Example 666, 6-((4-oxa-7-azaspiro[2.5]octan-7-yl)methyl)-2-(3-(3-((4-methyl-4H-1,2,4-triazol-3-yl)methyl)oxetan-3-yl)phenyl)-4-(trifluoromethyl)isoindolin-1-one] | ≤ 100 nM | < 100 nM |
| COC[C@@H]1CN(Cc2cc3c(c(C(F)(F)F)c2)CN(c2cccc(C4(Cc5nncn5C)COC4)c2)C3=O)CCO1 [Example 667, (S)-6-((2-(methoxymethyl)morpholino)methyl)-2-(3-(3-((4-methyl-4H-1,2,4-triazol-3-yl)methyl)oxetan-3-yl)phenyl)-4-(trifluoromethyl)isoindolin-1-one] | ≤ 100 nM | < 100 nM |
| CC(c1cc2c(c(C(F)(F)F)c1)CN(c1cccc(C3(C(F)(F)c4nncn4C)COC3)c1)C2=O)N1CC[C@H](F)C1 (stereo partly drawn) [Example 678, 2-(3-(3-(difluoro(4-methyl-4H-1,2,4-triazol-3-yl)methyl)oxetan-3-yl)phenyl)-6-(l-((S)-3-fluoropyrrolidin-1-yl)ethyl)-4-(trifluoromethyl)isoindolin-1-one] | ≤ 100 nM | < 100 nM |
| C[C@H](Cc1nncn1C)c1cc(C2=CCOCC2)nc(N2Cc3c(cccc3C(F)(F)F)C2=O)c1 [Example 685, (R)-2-(6-(3,6-dihydro-2H-pyran-4-yl)-4-(1-(4-methyl-4H-1,2,4-triazol-3-yl)propan-2-yl)pyridin-2-yl)-4-(trifluoromethyl)isoindolin-1-one] | ≤ 1000 nM | 301 to 1000 nM |
| CC(c1nncn1C)C1(c2cccc(N3Cc4c(cc(CN5CCC6(CC6)C5)cc4C(F)(F)F)C3=O)c2)COC1 (stereo not drawn) [Example 701, 6-((5-azaspiro[2.4]heptan-5-yl)methyl)-2-(3-(3-(1-(4-methyl-4H-1,2,4-triazol-3-yl)ethyl)oxetan-3-yl)phenyl)-4-(trifluoromethyl)isoindolin-1-one] | ≤ 1000 nM | 301 to 1000 nM |
| Cc1cc(C(=O)Nc2cccc(C3(Cc4nncn4C(F)F)COC3)c2)nc(C2CC2)n1 [Example 704, 2-cyclopropyl-N-(3-(3-((4-(difluoromethyl)-4H-1,2,4-triazol-3-yl)methyl)-oxetan-3-yl)phenyl)-6-methylpyrimidine-4-carboxamide] | ≤ 100 nM | < 100 nM |
| Cn1cnnc1CC1(c2cccc(N3Cc4c(cc(CN5CCc6cc(C#N)ccc6C5)cc4C(F)(F)F)C3=O)c2)COC1 [Example 706, 2-((2-(3-(3-((4-methyl-4H-1,2,4-triazol-3-yl)methyl)oxetan-3-yl)phenyl)-3-oxo-7-(trifluoromethyl)isoindolin-5-yl)methyl)-1,2,3,4-tetrahydroisoquinoline-6-carbonitrile] | ≤ 100 nM | < 100 nM |
| Cn1cnnc1CC1(c2cccc(N3Cc4c(cc(CN5CCO[C@H](C(F)(F)F)C5)cc4C(F)(F)F)C3=O)c2)COC1 [Example 707, (S)-2-(3-(3-((4-methyl-4H-1,2,4-triazol-3-yl)methyl)oxetan-3-yl)phenyl)-4-(trifluoromethyl)-6-((2-(trifluoromethyl)morpholino)methyl)isoindolin-1-one] | ≤ 100 nM | < 100 nM |
| Cn1cnnc1CC1(c2cccc(N3Cc4c(cc(CN5CCc6ncccc6C5)cc4C(F)(F)F)C3=O)c2)COC1 [Example 709, 6-((7,8-dihydro-1,6-naphthyridin-6(5H)-yl)methyl)-2-(3-(3-((4-methyl-4H-1,2,4-triazol-3-yl)methyl)oxetan-3-yl)phenyl)-4-(trifluoromethyl)isoindolin-1-one] | ≤ 100 nM | < 100 nM |
| Cn1cnnc1CC1(c2cccc(N3Cc4c(cc(CN5CCO[C@H](CO)C5)cc4C(F)(F)F)C3=O)c2)COC1 [Example 710, (S)-6-((2-(hydroxymethyl)morpholino)methyl)-2-(3-(3-((4-methyl-4H-1,2,4-triazol-3-yl)methyl)oxetan-3-yl)phenyl)-4-(trifluoromethyl)isoindolin-1-one] | ≤ 100 nM | < 100 nM |
